From publication PMC10015785, “A proteasomal β5 subunit of Haemonchus contortus with a role in the growth, development and life span” (Parasites & Vectors, 2023)

Biological target: T1, proteasomal β5 subunit (Hc-PBS-5) (Haemonchus contortus, UniProt A0A7I5E5W5)
T1 sequence (A0A7I5E5W5 65-284): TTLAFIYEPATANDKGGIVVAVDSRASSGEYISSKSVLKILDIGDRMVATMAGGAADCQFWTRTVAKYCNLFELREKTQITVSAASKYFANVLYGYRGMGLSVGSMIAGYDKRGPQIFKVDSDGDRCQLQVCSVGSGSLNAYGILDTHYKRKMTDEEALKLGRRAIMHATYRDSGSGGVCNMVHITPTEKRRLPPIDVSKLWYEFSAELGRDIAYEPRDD
Format: biochemical

IC50: 622 nM
SMILES: CC(C)C[C@H](NC(=O)[C@H](Cc1ccccc1)NC(=O)c1cnccn1)B(O)O [bortezomib]
